Assay results taken from publication PMC11589570, “Critical assessment of LC3/GABARAP ligands used for degrader development and ligandability of LC3/GABARAP binding pockets” (Nature Communications, 2024).
Read-outs that look alike come from different tables or passages of the source.

Biological target: GABARAPL2 (Homo sapiens, UniProt P60520)
Conditions: GABARAPL2:ligand molar ratio 1:2

GABARAPL2, sequence (P60520 whole entry): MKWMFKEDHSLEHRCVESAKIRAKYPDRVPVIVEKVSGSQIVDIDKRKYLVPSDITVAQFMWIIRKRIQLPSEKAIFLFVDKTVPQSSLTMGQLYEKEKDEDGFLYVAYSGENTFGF

Cc1ccc(C(=O)N(CCCN)[C@@H](c2nc3cc(Cl)ccc3c(=O)n2Cc2ccccc2)C(C)C)cc1 [compound 3, (R)-N-(3-aminopropyl)-N-(1-(3-benzyl-7-chloro-4-oxo-3,4-dihydroquinazolin-2-yl)−2-methylpropyl)−4-methylbenzamide]
CSP (residue E101): 0.002 ppm | CSP (residue E112): 0.0017 ppm | CSP (residue F60): 0.005 ppm | CSP (residue F77): 0.000283 ppm | CSP (residue F79): 0.002 ppm | CSP (residue F104): 0.0075 ppm | CSP (residue F115): 0.005 ppm | CSP (residue G38): 0.005 ppm | CSP (residue G103): 0.00213 ppm | CSP (residue G111): 0.00847 ppm | CSP (residue G116): 0.0024 ppm | CSP (residue H9): 0.010 ppm | CSP (residue H13): 0.0011 ppm | CSP (residue I21): 0.00184 ppm | CSP (residue I32): 0.00354 ppm | CSP (residue I41): 0.011 ppm | CSP (residue I44): 0.00216 ppm | CSP (residue I55): 0.000762 ppm | CSP (residue I63): 0.004 ppm | CSP (residue I64): 0.00283 ppm | CSP (residue I68): 0.008 ppm | CSP (residue I76): 0.000707 ppm | CSP (residue K2): 0.008 ppm | CSP (residue K6): 0.007 ppm | CSP (residue K20): 0.000707 ppm | CSP (residue K24): 0.001 ppm | CSP (residue K35): 0.004 ppm | CSP (residue K46, estimated): 0.010 ppm | CSP (residue K48): 0.022 ppm | CSP (residue K66): 0.00142 ppm | CSP (residue K74): 0.000906 ppm | CSP (residue K97): 0.00113 ppm | CSP (residue K99): 0.00144 ppm | CSP (residue L11): 0.000762 ppm | CSP (residue L50): 0.00216 ppm | CSP (residue L70): 0.0019 ppm | CSP (residue L78): 0.00212 ppm | CSP (residue L105): 0.00283 ppm | CSP (residue M1): 0.006 ppm | CSP (residue M61): 0.00221 ppm | CSP (residue N113): 0.000141 ppm | CSP (residue P26, estimated): 0.002 ppm | CSP (residue P30, estimated): 0.002 ppm | CSP (residue P52, estimated): 0.002 ppm | CSP (residue P71, estimated): 0.002 ppm | CSP (residue Q40): 0.00659 ppm | CSP (residue Q59): 0.000424 ppm | CSP (residue Q69): 0.0011 ppm | CSP (residue R14): 0.003 ppm | CSP (residue R22): 0.00649 ppm | CSP (residue R28): 0.00232 ppm | CSP (residue R47, estimated): 0.015 ppm | CSP (residue R65): 0.0022 ppm | CSP (residue R67): 0.003 ppm | CSP (residue S10): 0.008 ppm | CSP (residue S18): 0.00146 ppm | CSP (residue S37): 0.005 ppm | CSP (residue S39): 0.00232 ppm | CSP (residue S53): 0.002 ppm | CSP (residue S72): 0.00122 ppm | CSP (residue S110): 0.000825 ppm | CSP (residue T56): 0.00133 ppm | CSP (residue T114): 0.0017 ppm | CSP (residue V16): 0.000141 ppm | CSP (residue V29): 0.00214 ppm | CSP (residue V31): 0.00444 ppm | CSP (residue V33): 0.00281 ppm | CSP (residue V36): 0.00638 ppm | CSP (residue V42): 0.00652 ppm | CSP (residue V51): 0.00319 ppm | CSP (residue V57): 0.00127 ppm | CSP (residue V80): 0.00281 ppm | CSP (residue V107): 0.005 ppm | CSP (residue W3): 0.007 ppm | CSP (residue W62): 0.0057 ppm | CSP (residue Y25): 0.00742 ppm | CSP (residue Y49): 0.010 ppm | CSP (residue Y106): 0.00214 ppm | CSP (residue Y109): 0.00263 ppm
